# Measurements taken from patent US11555031B2, “Compounds and methods for regulating insulin secretion” (The Broad Institute, Inc., priority 2017, dated 2023).
# “Also recorded” adds a separate entry of the source.
# Tested on: INS-1E cells
# Assay: Luciferase Insulin Secretion Assay (proinsulin-Gaussia luciferase reporter)
# Assay type: cell-based, rat
# Design: key to Activity: Active: a compound is identified as active if the compound has a Z-score greater than 3 in the presence of 16.7 mM glucose; Partial activity indicates that the compound does promote insulin secretion (at lower Z-scores); Lost Glucose Dependence: In some cases, insulin secretion was promoted at both measured insulin concentrations
# Details: INS-1E cells; 2.8 mM vs 16.7 mM glucose
# Excerpt: A high-throughput luminescent insulin secretion assay was developed and performed to identify compounds that amplified insulin secretion only in the presence of a permissive glucose environment (FIG. 3). The assay used in compound screening is described in International Patent Publication No. WO2013070796A3, PCT/US2012/063982, and in Burns et al., High-Throughput Luminescent Reporter of Insulin Secretion for Discovering Regulators of Pancreatic Beta-Cell Function. Cell Metab. 2015 Jan. 6; 21(1):126-37.
# The assay is a luminescent insulin secretion assay created by inserting Gaussia luciferase within the C-peptide portion of the insulin prohormone. Gaussia luciferase was chosen because of its small size and bright luciferase signal. To ensure full activity of the luciferase, a version was used that was codon-optimized for expression in mammalian cells. The enzyme was flanked with additional cleavage sites for prohormone convertase 2 (PC2), such that no extra amino acids should be present on the ends of the enzyme after processing within the vesicles (FIG. 4). Rat (INS-1E; Merglen et al., 2004) beta-cell lines stably expressing the reporter construct were generated. Assays using this cell type are referred to herein as Luciferase Insulin Secretion Assay.
# A search for glucose-dependent insulin secretagogues was conducting by screening 384,216 compounds at a single concentration (10 μM) in duplicate using the Luciferase Insulin Secretion Assay, to identify those that increase insulin secretion only in the presence of high glucose (11.1 mM) (FIG. 6). These assays were performed in 1536 well format. A Z′ factor of 0.35 was obtained with respect the positive control (300 μM IBMX). The cutoff value selected was 45% activation, which was 3-4 standard deviations above background (solid uppermost line; FIG. 6).
# For standard secretion assays, INS-1E cells were plated in 96-well format, preincubated for 1 hr in Krebs Ringer Buffer (KRB) with 2.8 mM glucose, and then stimulated for 1 hr in fresh KRB containing varying amounts of glucose and compounds. Insulin or C-peptide concentration was determined using an ELISA (Mercodia), following the manufacturer's protocol. Luciferase activity was determined from the same samples by adding the coelenterazine substrate to the supernatant to a final concentration of 10 μM and reading on a standard plate reader (BioTek).
# INS-1E cells were expanded to 80% confluence in their growth medium, washed once in PBS, and preincubated for 1 hr at 37° C. in KRB with 2.8 mM glucose. Cells were then dissociated, spun at 300×g for 2 min, resuspended in fresh KRB without glucose, and filtered through 40 μm mesh (Becton Dickinson). Next, the cells were counted and diluted in KRB to 1×10^6 cells per ml, and glucose was added as required for each experiment. Cells were then seeded in 384-well format, 3×10^4 cells in 30 μl per well, using a Multidrop Combi device (Thermo Scientific). Compounds were pinned into each well using a Vario robot (CyBio) to a final concentration of 30 μM, and the plates were then incubated for 2 hr at 37° C. For assays involving a transfer step, the plates were then centrifuged at 300×g for 2 min, and 20 μl of supernatant was transferred to a new 384-well plate. Coelenterazine substrate was then added to a final concentration of 10 μM, and luciferase activity was determined using a standard plate reader (BioTek).
row,SMILES,"glucose-dependent (glucose-stimulated) insulin secretion, luciferase reporter"
1,"Cc1sc2c(c1C)C(c1ccc(Cl)cc1)=N[C@@H](CC(=O)OC(C)(C)C)c1nnc(C)n1-2 [JQ1, reference compound]",None of the compounds assayed increased glucose-dependent insulin secretion; also recorded: No increase in secretion; also recorded: small effect
2,"COc1ccccc1S(=O)(=O)Nc1ccc2c(c1)CN(C)C(=O)N2 [PF1, reference compound]",neither of the known bromodomain inhibitors (PF1 or CBP30) affect secretion to the extent of Compound 8
3,"COc1ccccc1S(=O)(=O)Nc1ccc2c(c1)CN(C)C(=O)N2 [PF-1, reference compound]",None of the compounds assayed increased glucose-dependent insulin secretion

# Same assay, conditions: INS-1E cells; high compound concentrations
row,SMILES,effect on glucose-stimulated insulin secretion at high concentrations
1,"Cc1sc2c(c1C)C(c1ccc(Cl)cc1)=N[C@@H](CC(=O)OC(C)(C)C)c1nnc(C)n1-2 [JQ1, reference compound]",inhibitory effects; also recorded: decrease in glucose-stimulated secretion
2,"COc1ccccc1S(=O)(=O)Nc1ccc2c(c1)CN(C)C(=O)N2 [PF-1, reference compound]",inhibitory effects

# Same assay, conditions: glucose dependence of insulin secretion; Z-score in the presence of 16.7 mM glucose
row,SMILES,Activity
1,"Cc1noc(C)c1COc1ccc(C(=O)Nc2cccc3c2CCC3)cc1 [Compound 81, 4-(3,5-Dimethyl-isoxazol-4-ylmethoxy)-N-indan-4-yl-benzamide]",Inactive
2,Cc1cccc(NC(=O)c2ccc(OCc3c(C)noc3C)cc2)n1 [Compound 82],Inactive
3,"Cc1noc(C)c1COc1ccc(C(=O)Nc2cccc(C#N)c2C)cc1 [Compound 83, N-(3-Cyano-2-methyl-phenyl)-4-(3,5-dimethyl-isoxazol-4-ylmethoxy)-benzamide]",Inactive
4,"COCc1cccc(NC(=O)c2ccc(OCc3c(C)noc3C)cc2)c1 [Compound 84, 4-(3,5-Dimethyl-isoxazol-4-ylmethoxy)-N-(3-methoxymethyl-phenyl)-benzamide]",Inactive
5,CC(=O)c1ccccc1NC(=O)c1ccc(OCc2c(C)noc2C)cc1 [Compound 85],Inactive
6,Cc1noc(C)c1COc1ccc(C(=O)NC2CCCO2)cc1 (centres unmarked) [Compound 86],Inactive
7,"CC(=O)NCCCc1cc(C(=O)Nc2cccc(C)c2C)ccc1OCc1c(C)noc1C [Compound 88, 3-(3-Acetylamino-propyl)-4-(3,5-dimethyl-isoxazol-4-ylmethoxy)-N-(2,3-dimethyl-phenyl)-benzamide]",Active
8,"Cc1cccc(NC(=O)c2ccc(OCc3c(C)noc3C)c(CCCN=[N+]=[N-])c2)c1C [Compound 89, 3-(3-Azido-propyl)-4-(3,5-dimethyl-isoxazol-4-ylmethoxy)-N-(2,3-dimethyl-phenyl)-benzamide]",Inactive
9,"CC(=O)NCc1ccccc1NC(=O)c1ccc(OCc2c(C)noc2C)cc1 [Compound 90, N-[2-(Acetylamino-methyl)-phenyl]-4-(3,5-dimethyl-isoxazol-4-ylmethoxy)-benzamide]",Inactive
10,"CC(=O)NCc1cccc(NC(=O)c2ccc(OCc3c(C)noc3C)cc2)c1 [Compound 91, N-[3-(Acetylamino-methyl)-phenyl]-4-(3,5-dimethyl-isoxazol-4-ylmethoxy)-benzamide]",Inactive
11,Cc1cc(OCc2c(C)noc2C)ccc1-c1cnc(-c2cccc(C)c2C)[nH]1 [Compound 93],Inactive
12,Cc1cccc(-c2cnc(-c3ccc(OCc4c(C)noc4C)cc3)[nH]2)c1C [Compound 94],Inactive
13,Cc1cccc(-c2cc(-c3ccc(OCc4c(C)noc4C)cc3)n[nH]2)c1C [Compound 95],Inactive
14,"COCc1ccccc1NC(=O)c1ccc(OCc2c(C)noc2C)cc1 [Compound 96, 4-(3,5-Dimethyl-isoxazol-4-ylmethoxy)-N-(2-methoxymethyl-phenyl)-benzamide]",Inactive
15,"Cc1cccc(NS(=O)(=O)c2ccc(OCc3c(C)noc3C)cc2)c1C [Compound 97, 4-(3,5-Dimethyl-isoxazol-4-ylmethoxy)-N-(2,3-dimethyl-phenyl)-benzenesulfonamide]",Inactive
